Where two headings read alike, the source gives them in different places.
Columns and labels:
[1] = test system: HCT-15 colon cells; experiment: Antiproliferative assay, methylene blue staining; assay type: cell-based; settings: Homo sapiens, read-out: IC50 antiproliferative activity
From the text: (§1) The following cell lines are obtained from the American Type Culture Collection (ATCC, Rockville, Md., USA): human colon carcinomas HCT-15 (CCL 225) and HCT-116 (CCL 247), human lung adenocarcinoma A549 (CCL 185), human large cell carcinoma NCI-H460 (HTB 177), estrogen-independent breast carcinoma MDA-MB-231 ([…]), prostate cancer cell line Du 145 (HTB 81). The human KB-31 (drug-sensitive) and KB-8511 (multidrug-resistant, Pgp170 overexpressing) epidermoid carcinoma cells are obtained from Dr. R. M. Baker, Roswell Park Memorial Institute (Buffalo, N.Y., USA) and have been previously described (Akiyam S, et al. Somatic Cell Molec Genetics 1985;11:117-126 and Fojo A, et al., Cancer Res. […];45:3002-3007). The human metastatic prostate carcinoma PC-3M is obtained from Dr. I. J. Fidler (MD Anderson Cancer Center, Houston, Tex., USA). The estrogen-dependent human breast carcinoma cell line MCF-7/ADR (multidrug resistant) is a subline of the MCF-7 cell line (ATCC HTB 22) and is obtained from Dr. D. Fabbro (Novartis Pharma AG, Basel, Switzerland) and has been previously described (Blobe G C, et al. J. Biol. Chem. 1993; 268:658-664).
(§2) For the antiproliferative assays, cells are seeded at 1.5×10^3/well into 96-well microtiter plates and incubated overnight. Compounds are added in serial dilutions on day 1. The plates are than incubated for additional 5 days. This allowed the control cultures to undergo at least 3 cell divisions. After incubation the cells are fixed with 3.3% v/v glutaraldehyde, washed with water and stained with 0.05% w/v methylene blue. After washing, the dye is eluted with 3% v/v HCl and the optical density measured at 665 nm with a SpectraMax 340 (Bucherer, Basel, Switzerland). IC50 values are determined by a computerized system (SoftPro, Bucherer, Basel, Switzerland) using the formula (OD test—OD start)/(OD control—OD start)×100. IC50 is defined as the drug concentration which leads to 50% of cells per well compared to control cultures (100%) at the end of the incubation period.

[2] = test system: 1A9PTX22 cell line; settings: cited from earlier work
[3] = test system: panel of human tumor lines (drug-susceptible cell lines); experiment: Antiproliferative assay, methylene blue staining; assay type: cell-based; settings: 120 h, 5 days incubation
From the text: as §1, §2

[4] = test system: MCF-7/ADR cells (multidrug resistant); experiment: Antiproliferative assay, methylene blue staining; assay type: cell-based, human
From the text: as §1, with “The estrogen-dependent human breast carcinoma cell line MCF-7/ADR (multidrug resistant) is a subline of the MCF-7 cell line (ATCC HTB 22) and is obtained from Dr. D. Fabbro (Novartis Pharma AG, Basel, Switzerland) and has been previously described (Blobe G C, et al. J. Biol. Chem. 1993; 268:658-664).” left out
For the antiproliferative assays, cells are seeded at 1.5×10^3/well into 96-well microtiter plates and incubated overnight. […] After washing, the dye is eluted with 3% v/v HCl and the optical density measured at 665 nm with a SpectraMax 340 (Bucherer, Basel, Switzerland). IC50 values are determined by a computerized system (SoftPro, Bucherer, Basel, Switzerland) using the formula (OD test—OD start)/(OD control—OD start)×100. […]

[5] = Toxicity in non-tumor bearing naive nude mice (body weight); assay type: in vivo; settings: for body weight change: naive mice
Method: To assess toxicity of discodernolide on non-tumor bearing animals, four groups of 8 naive nude mice are dosed with the compound, iv, once (5 mg/kg, 7.5 mg/kg, 10 mg/kg, or 15 mg/kg). The control group is dosed with the vehicle alone (16.7% Cremophor EL, 8.3% ethanol and 75% D5W). Body weights are recorded once weekly.

[6] = test system: A549 cells; experiment: Antiproliferative assay (MTS); assay type: cell-based, human; settings: 72 h exposure, two independent experiments, read-out: IC50 cell proliferation
Method: A549, a human non-small cell lung carcinoma and MDA-MB-435, a human breast carcinoma, used in this study are obtained from the American Type Culture Collection (ATCC, Rockville, Md., USA). MDA-MB-435 cells are maintained in MEM containing 10% FBS, 1% sodium pyruvate, 1% MEM non-essential amino acids, and 15 mM HEPES (pH=7.4). A549 cells are maintained in RPMI 1640 containing 10% FBS. 1A9, a single-cell clone of the human ovarian carcinoma cell line A2780 and PTX22, the paclitaxel-resistant subline, used in this stdy are obtained from M. Wartman (Novartis Pharmauticals). 1A9 cells and PTX22 cells are maintained in RPMI 1640 supplemented with 10% FBS. PTX22 maintenance media also contained 15 ng/mL paclitaxel and 5 μg/mL verapamil. Drug is removed from the media for 5-7 days before use in an experiment. All maintenance media contained 100 units/mL penicillin and 100 μg/mL streptomycin.
Cell lines are trypsinized and counted using a Coulter counter. Cells were plated in 96 well plates (190 μL/well) at the following densities: 1,000 cells/well for A549 and 3,000 cells/well for MDA-MB-435. The number of cells plated results in cell densities of 75-90% confluence by the time of harvest. Plates are seeded on day 0. On day 1 test compounds are added to triplicate wells in a final volume of 10 μL media. Initial cell density for each cell line is measured on day 1 by adding 10 μL MTS mixture (see below), incubating for 4 h and recording absorbance at 490 nm (A490). Two or three days after test compound addition, 10 μL/well of MTS mixture is added to the test plates and A490 was read 4 h later. A490 values for wells containing cells are corrected for media absorbance, then normalized to initial density readings to determine percent net growth. Percent net growth is calculated as (A490+drug−A490 initial)/(A490—drug—A490 initial). Graphs of percent net growth as a function of compound concentration are used to calculate concentrations resulting in 50% growth inhibition (IC50). MTS mixture is prepared fresh on day of addition to cell plates at a ratio of 10 μL of a 0.92 mg/mL solution of phenazine methosulfate (PMS) to 190 μL of a 2 mg/mL solution of MTS (3-(4,5-dimethylthiazol-2-yl)-5-(3-carboxymethoxyphenyl)-2-(4-sulfophenyl)-2H-tetrazolium, inner salt). PMS and MTS solutions are prepared in buffered saline containing 0.2 g/L KCl, 8.0 g/L NaCl, 0.2 g/L KH2PO4, 1.15 g/L Na2HPO4, 133 mg/L CaCl2.2H2O, 100 mg/L MgCl2.6H2O, (pH=7.35) and stored as foil-wrapped aliquots at −20° C. Test compounds are prepared as stock solutions in DMSO. Test compound dilutions are made in 2% DMSO/cell maintenance media and diluted into assay plates to give 0.1% DMSO final in all wells.

With `CC(=O)O[C@H]1C(=O)[C@@]2(C)[C@H]([C@H](OC(=O)c3ccccc3)[C@]3(O)C[C@H](OC(=O)[C@H](O)[C@@H](NC(=O)c4ccccc4)c4ccccc4)C(C)=C1C3(C)C)[C@]1(OC(C)=O)CO[C@@H]1C[C@@H]2O` [paclitaxel, reference compound] as the molecule, how does the IC50 ([1]; 120 h, HCT-15 colon cells, 5 days incubation) read?
The IC50 was about 120 nM.

What about the “fold less sensitive than 1A9 (reported)” value ([2]; PTX-22 subline) of the same molecule?
The value was 20-30 fold.

And the “fold resistance of 1A9PTX22 versus parental 1A9” value ([2]; in vitro, Giannakakou et al. 1997)?
The value was 24 fold.

Which IC50 ([1]; HCT-15, 120 h) does the source give for `C=C/C=C\[C@H](C)[C@H](OC(N)=O)[C@@H](C)[C@H](O)[C@@H](C)C/C(C)=C\[C@H](C)[C@@H](O)[C@@H](C)/C=C\[C@@H](O)C[C@@H]1OC(=O)[C@H](C)[C@@H](O)[C@H]1C` [discodermolide, (+)-Discodermolide] here?
The IC50 was about 8 nM.

What about the IC50 [3] of the same molecule?
Its IC50 is 2 to 24 nM.

And the “potency compared with paclitaxel” value [4]?
The value was “more potent than paclitaxel”.

What about the body weight lost ([5]; naive athymic nude mice, single injections, one week after dosing) of the same molecule?
Its body weight lost is “no more than 4%”.

And the body weight change ([5]; single iv 5 mg/kg, one week after dosing)?
The body weight change was “+8.7%”.

What about the body weight change ([5]; single iv 5 mg/kg, three weeks after dosing) of the same molecule?
Its body weight change is “+9.4%”.

What about the body weight change ([5]; single iv 5 mg/kg, two weeks after dosing) of the same molecule?
The body weight change was “+9.4%”.

What about the body weight change ([5]; single iv 7.5 mg/kg, one week after dosing) of the same molecule?
Its body weight change is “+1.2%”.

And the body weight change ([5]; single iv 7.5 mg/kg, three weeks after dosing)?
Its body weight change is “+7.7%”.

What about the body weight change ([5]; single iv 7.5 mg/kg, two weeks after dosing) of the same molecule?
The body weight change was “+3.2%”.

And the body weight change ([5]; single iv 10 mg/kg, one week after dosing)?
The body weight change was −1.2%.

What about the body weight change ([5]; single iv 10 mg/kg, three weeks after dosing) of the same molecule?
Its body weight change is “+5.6%”.

And the body weight change ([5]; single iv 10 mg/kg, two weeks after dosing)?
Its body weight change is “+1.2%”.

What about the body weight change ([5]; single iv 15 mg/kg, one week after dosing) of the same molecule?
The body weight change was −4.1%.

And the body weight change ([5]; single iv 15 mg/kg, three weeks after dosing)?
The body weight change was “+5.90%”.

What about the body weight change ([5]; single iv 15 mg/kg, two weeks after dosing) of the same molecule?
The body weight change was −0.4%.

What about the IC50 [6] of the same molecule?
The IC50 was 60 nM.

What about the IC50 ([6]; Homo sapiens, A549, 72 h) of the same molecule?
The IC50 was 45 nM.

— US6774143B1, “Method for treating cells resistant to antineoplastic agents” (Novartis AG, priority 2003, dated 2004)
